# Reference: PubChem BioAssay AID1963870 (Molecular Pharmacology Branch, DTP, NCI, 2024)
# Tested on: 292921-168-R-J2-PDC KRAS tumor spheroid viability
# Test: Anticancer human tumor 292921-168-R-J2-PDC patient-derived pancreatic carcinoma cell line growth inhibition [KRAS2]
# Details: spheroids with HUVEC and MSC; for IC50: curve of first compound; for viability, T/C: stronger effect = lower value
# Summary of the method: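 Combination screen of spheroid viability in tumor-cell co-cultures with endothelial (HUVEC) and mesenchymal stem cell stroma. Each agent was tested in half-log dilutions, topping at clinical Cmax or at 10 microM without a known Cmax.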
# [1] = second compound 0.1 µM, first compound 0.00316 µM
# [2] = second compound 0.1 µM, first compound 0.01 µM
# [3] = second compound 0.1 µM, first compound 0.0316 µM
# [4] = second compound 0.1 µM, first compound 0.1 µM
# [5] = second compound 0.316 µM, first compound 0.00316 µM
# [6] = second compound 0.316 µM, first compound 0.01 µM
# [7] = second compound 0.316 µM, first compound 0.0316 µM
# [8] = second compound 0.316 µM, first compound 0.1 µM
# [9] = second compound 1 µM, first compound 0.00316 µM
# [10] = second compound 1 µM, first compound 0.01 µM
# [11] = second compound 1 µM, first compound 0.0316 µM
# [12] = second compound 1 µM, first compound 0.1 µM
# [13] = second compound 3.16 µM, first compound 0.00316 µM
# [14] = second compound 3.16 µM, first compound 0.01 µM
# [15] = second compound 3.16 µM, first compound 0.0316 µM
# [16] = second compound 3.16 µM, first compound 0.1 µM
# [17] = second compound 0.1 µM, first compound 0.316 µM
# [18] = second compound 0.1 µM, first compound 1 µM
# [19] = second compound 0.316 µM, first compound 0.316 µM
# [20] = second compound 0.316 µM, first compound 1 µM
# [21] = second compound 1 µM, first compound 0.316 µM
# [22] = second compound 1 µM, first compound 1 µM
# [23] = second compound 3.16 µM, first compound 0.316 µM
# [24] = second compound 3.16 µM, first compound 1 µM
# [25] = second compound 10 µM, first compound 0.0316 µM
# [26] = second compound 10 µM, first compound 0.1 µM
# [27] = second compound 10 µM, first compound 0.316 µM
# [28] = second compound 10 µM, first compound 1 µM
# 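Further: drug exposure lasted seven days after spheroids formed for three days.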
# 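Wherever viability, T/C is given: percent of DMSO vehicle control viability which is 100%.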
structure (smiles),measurement,setting,value
CC(C)n1nc(-c2ccc3oc(N)nc3c2)c2c(N)ncnc21 + C=CC(=O)N1CCN(c2nc(OCC3CCCN3C)nc3c2CCN(c2cccc4cccc(C)c24)C3)CC1CC#N,IC50,second compound 0.0316 µM,2.49 nM
same,IC50,second compound 0.1 µM,2.84 nM
same,IC50,second compound 0.316 µM,1.07 nM
same,IC50,second compound 1 µM,< 0.316 nM
same,IC50,second compound 3.16 µM,< 0.316 nM
same,"viability, T/C","second compound 0.0316 µM, first compound 0.000316 µM",78.8%
same,"viability, T/C","second compound 0.0316 µM, first compound 0.001 µM",62.7%
same,"viability, T/C","second compound 0.0316 µM, first compound 0.00316 µM",48.3%
same,"viability, T/C","second compound 0.0316 µM, first compound 0.01 µM",30.8%
same,"viability, T/C","second compound 0.0316 µM, first compound 0.0316 µM",25.3%
same,"viability, T/C","second compound 0.0316 µM, first compound 0.1 µM",21.1%
same,"viability, T/C","second compound 0.1 µM, first compound 0.000316 µM",83.3%
same,"viability, T/C","second compound 0.1 µM, first compound 0.001 µM",70.8%
same,"viability, T/C",[1],47.3%
same,"viability, T/C",[2],31%
same,"viability, T/C",[3],21.4%
same,"viability, T/C",[4],20.9%
same,"viability, T/C","second compound 0.316 µM, first compound 0.000316 µM",70.2%
same,"viability, T/C","second compound 0.316 µM, first compound 0.001 µM",50.5%
same,"viability, T/C",[5],36.9%
same,"viability, T/C",[6],28.6%
same,"viability, T/C",[7],21.6%
same,"viability, T/C",[8],18.5%
same,"viability, T/C","second compound 1 µM, first compound 0.000316 µM",30.9%
same,"viability, T/C","second compound 1 µM, first compound 0.001 µM",25.5%
same,"viability, T/C",[9],23.8%
same,"viability, T/C",[10],17.8%
same,"viability, T/C",[11],15.7%
same,"viability, T/C",[12],13.8%
same,"viability, T/C","second compound 3.16 µM, first compound 0.000316 µM",1.12%
same,"viability, T/C","second compound 3.16 µM, first compound 0.001 µM",0.57%
same,"viability, T/C",[13],0.82%
same,"viability, T/C",[14],0.33%
same,"viability, T/C",[15],0.47%
same,"viability, T/C",[16],0.73%
CCN1CCN(Cc2ccc(Nc3ncc(F)c(-c4cc(F)c5nc(C)n(C(C)C)c5c4)n3)nc2)CC1 + C=CC(=O)N1CCN(c2nc(=O)n(-c3c(C)ccnc3C(C)C)c3nc(-c4c(O)cccc4F)c(F)cc23)C(C)C1,IC50,second compound 0.1 µM,58.1 nM
same,IC50,second compound 0.316 µM,85.6 nM
same,IC50,second compound 1 µM,108 nM
same,IC50,second compound 3.16 µM,11.3 nM
same,IC50,second compound 10 µM,< 3.16 nM
same,"viability, T/C",[1],95%
same,"viability, T/C",[2],78%
same,"viability, T/C",[3],54.4%
same,"viability, T/C",[4],45.6%
same,"viability, T/C",[17],30.5%
same,"viability, T/C",[18],22.1%
same,"viability, T/C",[5],95.7%
same,"viability, T/C",[6],82.4%
same,"viability, T/C",[7],64.4%
same,"viability, T/C",[8],47.6%
same,"viability, T/C",[19],35.3%
same,"viability, T/C",[20],26.7%
same,"viability, T/C",[9],96.8%
same,"viability, T/C",[10],82%
same,"viability, T/C",[11],66.2%
same,"viability, T/C",[12],50.4%
same,"viability, T/C",[21],37.2%
same,"viability, T/C",[22],22.6%
same,"viability, T/C",[13],57.7%
same,"viability, T/C",[14],50%
same,"viability, T/C",[15],45%
same,"viability, T/C",[16],34.6%
same,"viability, T/C",[23],28.9%
same,"viability, T/C",[24],21.2%
same,"viability, T/C","second compound 10 µM, first compound 0.00316 µM",18.5%
same,"viability, T/C","second compound 10 µM, first compound 0.01 µM",23.9%
same,"viability, T/C",[25],23.7%
same,"viability, T/C",[26],22.9%
same,"viability, T/C",[27],20.4%
same,"viability, T/C",[28],6.06%
CC(C)NCC(C(=O)N1CCN(c2ncnc3c2C(C)CC3O)CC1)c1ccc(Cl)cc1 (stereo not given) + C=CC(=O)N1CCN(c2nc(=O)n(-c3c(C)ccnc3C(C)C)c3nc(-c4c(O)cccc4F)c(F)cc23)C(C)C1,IC50,second compound 0.1 µM,> 10000 nM
same,IC50,second compound 0.316 µM,> 10000 nM
same,IC50,second compound 1 µM,6050 nM
same,IC50,second compound 3.16 µM,1640 nM
same,IC50,second compound 10 µM,< 31.6 nM
same,"viability, T/C",[3],95.3%
same,"viability, T/C",[4],91.2%
same,"viability, T/C",[17],88.1%
same,"viability, T/C",[18],86.3%
same,"viability, T/C","second compound 0.1 µM, first compound 3.16 µM",79.4%
same,"viability, T/C","second compound 0.1 µM, first compound 10 µM",50.9%
same,"viability, T/C",[7],96.3%
same,"viability, T/C",[8],96.2%
same,"viability, T/C",[19],85.7%
same,"viability, T/C",[20],81.1%
same,"viability, T/C","second compound 0.316 µM, first compound 3.16 µM",67.4%
same,"viability, T/C","second compound 0.316 µM, first compound 10 µM",52.7%
same,"viability, T/C",[11],92.7%
same,"viability, T/C",[12],82.3%
same,"viability, T/C",[21],76.1%
same,"viability, T/C",[22],75.8%
same,"viability, T/C","second compound 1 µM, first compound 3.16 µM",63.8%
same,"viability, T/C","second compound 1 µM, first compound 10 µM",39.8%
same,"viability, T/C",[15],51.9%
same,"viability, T/C",[16],63.9%
same,"viability, T/C",[23],58.7%
same,"viability, T/C",[24],53.1%
same,"viability, T/C","second compound 3.16 µM, first compound 3.16 µM",44.4%
same,"viability, T/C","second compound 3.16 µM, first compound 10 µM",25.9%
same,"viability, T/C",[25],18.6%
same,"viability, T/C",[26],22.1%
same,"viability, T/C",[27],17.8%
same,"viability, T/C",[28],15.3%
same,"viability, T/C","second compound 10 µM, first compound 3.16 µM",18.3%
same,"viability, T/C","second compound 10 µM, first compound 10 µM",11.8%
